Assay results from patent publication US20220388964A1 (HiberCell, Inc., priority 2019, published 2022).

target: T1, GCN2 (Homo sapiens, UniProt Q9P2K8); experiment: TR-FRET assay for inhibition of GCN2 (Example 107, for Examples 40-72)
T1 sequence (Q9P2K8 whole entry): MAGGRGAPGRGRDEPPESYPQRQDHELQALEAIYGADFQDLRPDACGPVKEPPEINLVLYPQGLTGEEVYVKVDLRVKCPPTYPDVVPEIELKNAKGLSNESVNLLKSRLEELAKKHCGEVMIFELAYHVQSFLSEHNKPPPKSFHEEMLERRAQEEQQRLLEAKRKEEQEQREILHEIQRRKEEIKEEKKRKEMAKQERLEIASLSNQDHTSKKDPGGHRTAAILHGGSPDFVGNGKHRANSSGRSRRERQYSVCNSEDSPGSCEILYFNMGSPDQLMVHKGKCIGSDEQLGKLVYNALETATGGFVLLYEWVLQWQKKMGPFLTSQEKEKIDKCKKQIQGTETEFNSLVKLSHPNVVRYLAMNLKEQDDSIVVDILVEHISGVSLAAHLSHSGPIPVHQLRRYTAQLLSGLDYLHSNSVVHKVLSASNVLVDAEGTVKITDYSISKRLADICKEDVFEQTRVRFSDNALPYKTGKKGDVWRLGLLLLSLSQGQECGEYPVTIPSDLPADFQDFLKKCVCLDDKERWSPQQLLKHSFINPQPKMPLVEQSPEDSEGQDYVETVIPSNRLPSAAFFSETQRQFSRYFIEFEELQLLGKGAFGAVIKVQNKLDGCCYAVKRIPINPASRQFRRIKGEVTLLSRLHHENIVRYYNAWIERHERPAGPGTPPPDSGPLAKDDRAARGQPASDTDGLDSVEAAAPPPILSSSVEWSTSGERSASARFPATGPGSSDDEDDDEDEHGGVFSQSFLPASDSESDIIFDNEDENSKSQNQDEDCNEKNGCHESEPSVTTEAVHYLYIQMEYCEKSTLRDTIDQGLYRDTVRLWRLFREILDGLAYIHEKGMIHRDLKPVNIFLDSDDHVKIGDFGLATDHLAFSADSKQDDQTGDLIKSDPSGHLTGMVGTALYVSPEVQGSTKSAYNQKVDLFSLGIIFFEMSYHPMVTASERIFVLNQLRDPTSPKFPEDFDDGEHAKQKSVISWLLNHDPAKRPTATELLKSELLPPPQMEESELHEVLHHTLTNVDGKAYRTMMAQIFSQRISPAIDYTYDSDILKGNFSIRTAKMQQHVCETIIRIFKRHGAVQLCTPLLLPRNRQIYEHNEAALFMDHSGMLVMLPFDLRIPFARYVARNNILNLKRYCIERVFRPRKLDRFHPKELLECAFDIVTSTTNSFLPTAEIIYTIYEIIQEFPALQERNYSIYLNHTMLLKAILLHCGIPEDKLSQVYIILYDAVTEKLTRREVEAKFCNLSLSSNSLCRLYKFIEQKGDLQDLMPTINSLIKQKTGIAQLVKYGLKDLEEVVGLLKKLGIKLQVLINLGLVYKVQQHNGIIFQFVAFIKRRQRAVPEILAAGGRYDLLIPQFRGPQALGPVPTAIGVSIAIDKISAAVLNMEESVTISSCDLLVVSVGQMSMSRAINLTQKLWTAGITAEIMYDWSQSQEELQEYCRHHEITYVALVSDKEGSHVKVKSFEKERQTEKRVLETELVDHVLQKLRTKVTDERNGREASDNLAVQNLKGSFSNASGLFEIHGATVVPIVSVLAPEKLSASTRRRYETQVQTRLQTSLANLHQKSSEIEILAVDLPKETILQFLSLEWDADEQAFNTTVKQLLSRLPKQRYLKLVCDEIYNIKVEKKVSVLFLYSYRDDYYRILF

| Compound | IC50 |
| --- | --- |
| COc1ncc(Cl)cc1S(=O)(=O)Nc1ccc(F)c(-c2ccc3c(C(=O)NC4CCN(C(C)=O)C4)n[nH]c3c2F)c1F (stereo not drawn) [Example 51, N-(1-acetylpyrrolidin-3-yl)-6-[3-(5-chloro-2-methoxypyridine-3-sulfonamido)-2,6-difluorophenyl]-7-fluoro-1H-indazole-3-carboxamide] | < 500 nM |
| COc1ncc(Cl)cc1S(=O)(=O)Nc1ccc(F)c(-c2ccc3c(C(=O)NC(C)CCO)n[nH]c3c2F)c1F (stereo not drawn) [Example 60, 6-[3-(5-chloro-2-methoxypyridine-3-sulfonamido)-2,6-difluorophenyl]-7-fluoro-N-(4-hydroxybutan-2-yl)-1H-indazole-3-carboxamide] | < 500 nM |
| COc1ncc(Cl)cc1S(=O)(=O)Nc1ccc(F)c(-c2ccc3c(C(=O)NC4CCCOC4)n[nH]c3c2F)c1F (stereo not drawn) [Example 55, 6-[3-(5-Chloro-2-methoxypyridine-3-sulfonamido)-2,6-difluorophenyl]-7-fluoro-N-(oxan-3-yl)-1H-indazole-3-carboxamide] | < 500 nM |
| CNC(=O)c1n[nH]c2c(F)c(-c3c(F)ccc(NS(=O)(=O)c4cc(Cl)cnc4OC(F)F)c3F)ccc12 [Example 45, 6-[3-[5-chloro-2-(difluoromethoxy)pyridine-3-sulfonamido]-2,6-difluorophenyl]-7-fluoro-N-methyl-1H-indazole-3-carboxamide] | < 500 nM |
| CNC(=O)c1n[nH]c2c(F)c(-c3c(F)ccc(NS(=O)(=O)c4cc(C#N)cnc4OC)c3F)ncc12 [Example 71, 6-[3-(5-Cyano-2-methoxypyridine-3-sulfonamido)-2,6-difluorophenyl]-7-fluoro-N-methyl-1H-pyrazolo[4,3-c]pyridine-3-carboxamide] | < 500 nM |
| CNC(=O)c1n[nH]c2c(F)c(-c3c(F)ccc(NS(=O)(=O)c4cc(Cl)cnc4OC)c3F)ncc12 [Example 67, 6-[3-(5-Chloro-2-methoxypyridine-3-sulfonamido)-2,6-difluorophenyl]-7-fluoro-N-methyl-1H-pyrazolo[4,3-c]pyridine-3-carboxamide] | < 500 nM |
| COc1ncc(Cl)cc1S(=O)(=O)Nc1ccc(F)c(-c2ccc3c(C(=O)NC4CCNC4)n[nH]c3c2F)c1F (stereo not drawn) [Example 57, 6-[3-(5-Chloro-2-methoxypyridine-3-sulfonamido)-2,6-difluorophenyl]-7-fluoro-N-(pyrrolidin-3-yl)-1H-indazole-3-carboxamide] | < 500 nM |
| CCCC(C)NC(=O)c1n[nH]c2c(F)c(-c3c(F)ccc(NS(=O)(=O)c4cc(Cl)cnc4OC)c3F)ccc12 (stereo not drawn) [Example 59, 6-[3-(5-Chloro-2-methoxypyridine-3-sulfonamido)-2,6-difluorophenyl]-7-fluoro-N-(pentan-2-yl)-1H-indazole-3-carboxamide] | < 500 nM |
| COc1ncc(Cl)cc1S(=O)(=O)Nc1ccc(F)c(-c2ccc3c(-c4ncco4)n[nH]c3c2F)c1F [Example 64, 5-chloro-N-[2,4-difluoro-3-[7-fluoro-3-(1,3-oxazol-2-yl)-1H-indazol-6-yl]phenyl]-2-methoxypyridine-3-sulfonamide] | < 500 nM |

target: T1, GCN2; experiment: TR-FRET biochemical assay for inhibition of GCN2 (Example 108, for Examples 73-105)

| Compound | IC50 |
| --- | --- |
| CNC(=O)c1n[nH]c2c(F)c(-c3c(F)ccc(NS(=O)(=O)C4CCOCC4)c3F)ccc12 [Example 75, 6-[2,6-difluoro-3-(oxane-4-sulfonamido)phenyl]-7-fluoro-N-methyl-1H-indazole-3-carboxamide] | 2500 to 10000 nM |
| CNC(=O)c1n[nH]c2c(F)c(-c3c(F)ccc(NS(=O)(=O)CC4CCC(O)C4)c3F)ccc12 (mixture of isomers) [Example 78, 6-[2,6-difluoro-3-[(3-hydroxycyclopentyl)methanesulfonamido]phenyl]-7-fluoro-N-methyl-1H-indazole-3-carboxamide] | 2500 to 10000 nM |
| CNC(=O)c1n[nH]c2c(F)c(-c3c(F)ccc(NS(=O)(=O)C4CCCN(C)C4)c3F)ccc12 (stereo not drawn) [Example 77, 6-[2,6-difluoro-3-(1-methylpiperidine-3-sulfonamido)phenyl]-7-fluoro-N-methyl-1H-indazole-3-carboxamide] | 2500 to 10000 nM |

The remaining lines, values ahead:

| IC50 | Compound |
| --- | --- |
| 2500 to 10000 nM | CNC(=O)c1n[nH]c2c(F)c(-c3c(F)ccc(NS(=O)(=O)CC4CCCC4)c3F)ccc12 [Example 74, 6-[3-(cyclopentylmethanesulfonamido)-2,6-difluorophenyl]-7-fluoro-N-methyl-1H-indazole-3-carboxamide] |
| < 500 nM | COc1ncc(Cl)cc1S(=O)(=O)Nc1ccc(F)c(-c2ccc3c(C(=O)NC4CCCC(N)C4)n[nH]c3c2F)c1F (stereo not drawn) [Example 98, N-(3-Aminocyclohexyl)-6-[3-(5-chloro-2-methoxypyridine-3-sulfonamido)-2,6-difluorophenyl]-7-fluoro-1H-indazole-3-carboxamide] |
| < 500 nM | COc1ncc(Cl)cc1S(=O)(=O)Nc1ccc(F)c(-c2ccc3c(C(=O)NC(C)CN)n[nH]c3c2F)c1F (stereo not drawn) [Example 95, N-(1-Aminopropan-2-yl)-6-[3-(5-chloro-2-methoxypyridine-3-sulfonamido)-2,6-difluorophenyl]-7-fluoro-1H-indazole-3-carboxamide] |
| < 500 nM | COc1ncc(Cl)cc1S(=O)(=O)Nc1ccc(F)c(-c2ccc3c(C(=O)NCCN4CCOCC4)n[nH]c3c2F)c1F [Example 86, 6-[3-(5-Chloro-2-methoxypyridine-3-sulfonamido)-2,6-difluorophenyl]-7-fluoro-N-[2-(morpholin-4-yl)ethyl]-1H-indazole-3-carboxamide] |
| < 500 nM | COc1ncc(Cl)cc1S(=O)(=O)Nc1ccc(F)c(-c2ccc3c(C(=O)NCC4CC4)n[nH]c3c2F)c1F [Example 85, 6-[3-(5-Chloro-2-methoxypyridine-3-sulfonamido)-2,6-difluorophenyl]-N-(cyclopropylmethyl)-7-fluoro-1H-indazole-3-carboxamide] |
| < 500 nM | CNC(=O)c1n[nH]c2c(F)c(-c3c(F)ccc(NS(=O)(=O)c4cc(F)cc5c4CCC5O)c3F)ccc12 (stereo not drawn) [Example 76, 6-[2,6-Difluoro-3-(6-fluoro-1-hydroxy-2,3-dihydro-1H-indene-4-sulfonamido)phenyl]-7-fluoro-N-methyl-1H-indazole-3-carboxamide] |
| < 500 nM | COc1ncc(Cl)cc1S(=O)(=O)Nc1ccc(F)c(-c2ccc3c(C(=O)NC4CCCC4O)n[nH]c3c2F)c1F (stereo not drawn) [Example 87, 6-[3-(5-Chloro-2-methoxypyridine-3-sulfonamido)-2,6-difluorophenyl]-7-fluoro-N-(2-hydroxycyclopentyl)-1H-indazole-3-carboxamide] |
| < 500 nM | COc1ncc(Cl)cc1S(=O)(=O)Nc1ccc(F)c(-c2ccc3c(C(=O)NCC4CCN(C)C4)n[nH]c3c2F)c1F (stereo not drawn) [Example 100, 6-[3-(5-Chloro-2-methoxypyridine-3-sulfonamido)-2,6-difluorophenyl]-7-fluoro-N-[(1-methylpyrrolidin-3-yl)methyl]-1H-indazole-3-carboxamide] |
| < 500 nM | COc1ncc(Cl)cc1S(=O)(=O)Nc1ccc(F)c(-c2ccc3c(C(=O)NC4CCCC(O)C4)n[nH]c3c2F)c1F (stereo not drawn) [Example 80, 6-[3-(5-Chloro-2-methoxypyridine-3-sulfonamido)-2,6-difluorophenyl]-7-fluoro-N-(3-hydroxycyclohexyl)-1H-indazole-3-carboxamide] |
| 500 to 2500 nM | COc1ncc(Cl)cc1S(=O)(=O)Nc1ccc(F)c(-c2ccc3c(C(=O)NC4CCCCC4N)n[nH]c3c2F)c1F (stereo not drawn) [Example 94, N-(2-Aminocyclohexyl)-6-[3-(5-chloro-2-methoxypyridine-3-sulfonamido)-2,6-difluorophenyl]-7-fluoro-1H-indazole-3-carboxamide] |
| < 500 nM | COc1ncc(Cl)cc1S(=O)(=O)Nc1ccc(F)c(-c2ccc3c(C(=O)NCC4CCCNC4)n[nH]c3c2F)c1F (stereo not drawn) [Example 93, 6-[3-(5-Chloro-2-methoxypyridine-3-sulfonamido)-2,6-difluorophenyl]-7-fluoro-N-(piperidin-3-ylmethyl)-1H-indazole-3-carboxamide] |
| < 500 nM | COc1ncc(Cl)cc1S(=O)(=O)Nc1ccc(F)c(-c2ccc3c(C(=O)NC4CCC(O)C4)n[nH]c3c2F)c1F (stereo not drawn) [Example 97, 6-[3-(5-Chloro-2-methoxypyridine-3-sulfonamido)-2,6-difluorophenyl]-7-fluoro-N-(3-hydroxycyclopentyl)-1H-indazole-3-carboxamide] |
| < 500 nM | C#CCNC(=O)c1n[nH]c2c(F)c(-c3c(F)ccc(NS(=O)(=O)c4cc(Cl)cnc4OC)c3F)ccc12 [Example 92, 6-[3-(5-Chloro-2-methoxypyridine-3-sulfonamido)-2,6-difluorophenyl]-7-fluoro-N-(prop-2-yn-1-yl)-1H-indazole-3-carboxamide] |
| < 500 nM | COc1ncc(Cl)cc1S(=O)(=O)Nc1ccc(F)c(-c2ccc3c(C(=O)NC4CCCC4)n[nH]c3c2F)c1F [Example 79, 6-[3-(5-Chloro-2-methoxypyridine-3-sulfonamido)-2,6-difluorophenyl]-N-cyclopentyl-7-fluoro-1H-indazole-3-carboxamide] |
| < 500 nM | COc1ncc(Cl)cc1S(=O)(=O)Nc1ccc(F)c(-c2ccc3c(C(=O)NC(C#N)C4CC4)n[nH]c3c2F)c1F (stereo not drawn) [Example 91, 6-[3-(5-Chloro-2-methoxypyridine-3-sulfonamido)-2,6-difluorophenyl]-N-[cyano(cyclopropyl)methyl]-7-fluoro-1H-indazole-3-carboxamide] |
| < 500 nM | COc1ncc(Cl)cc1S(=O)(=O)Nc1ccc(F)c(-c2ccc3c(C(=O)NC4CC4)n[nH]c3c2F)c1F [Example 81, 6-[3-(5-Chloro-2-methoxypyridine-3-sulfonamido)-2,6-difluorophenyl]-N-cyclopropyl-7-fluoro-1H-indazole-3-carboxamide] |
| < 500 nM | C#CC(C)(C)NC(=O)c1n[nH]c2c(F)c(-c3c(F)ccc(NS(=O)(=O)c4cc(Cl)cnc4OC)c3F)ccc12 [Example 89, 6-[3-(5-Chloro-2-methoxypyridine-3-sulfonamido)-2,6-difluorophenyl]-7-fluoro-N-(2-methylbut-3-yn-2-yl)-1H-indazole-3-carboxamide] |
| < 500 nM | COc1ncc(Cl)cc1S(=O)(=O)Nc1ccc(F)c(-c2ccc3c(C(=O)NCC4CCOCC4)n[nH]c3c2F)c1F [Example 82] |
